How the values were obtained:
Assay in all cases: relative viability (nuclei count vs DMSO), 5 days (fraction); higher = more cells survive
[1] = compound: COc1cc2ncn(-c3cc(OCc4ccccc4C(F)(F)F)c(C(N)=O)s3)c2cc1OC + CC(=O)c1c(C)c2cnc(Nc3ccc(N4CCNCC4)cn3)nc2n(C2CCCC2)c1=O [Palbociclib] (partner 0.5 µM)
Outline: (§1)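 Relative viability is defined as nuclei in treated wells over nuclei in vehicle wells. Duplicate plates were run and medians reported. Lung cancer cell lines in 1536-well plates were dosed by pin tool one day after seeding, with one drug or with a fixed anchor-drug dose plus five library-drug doses (not always all listed) in √10 steps, and nuclei were counted after 5 days.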

[2] = compound: COc1cc2ncn(-c3cc(OCc4ccccc4C(F)(F)F)c(C(N)=O)s3)c2cc1OC + CC(C)C[C@H](NC(=O)[C@H](Cc1ccccc1)NC(=O)c1cnccn1)B(O)O [Bortezomib] (partner 0.002 µM)
Outline: as §1

[3] = compound: COc1cc2ncn(-c3cc(OCc4ccccc4C(F)(F)F)c(C(N)=O)s3)c2cc1OC + Cc1nc(Nc2ncc(C(=O)Nc3c(C)cccc3Cl)s2)cc(N2CCN(CCO)CC2)n1 [Dasatinib] (partner 0.075 µM)
Outline: as §1

[4] = compound: COc1cc2ncn(-c3cc(OCc4ccccc4C(F)(F)F)c(C(N)=O)s3)c2cc1OC + Cc1nc(NC(=O)N2CCC[C@H]2C(N)=O)sc1-c1ccnc(C(C)(C)C(F)(F)F)c1 [Alpelisib] (partner 2 µM)
Outline: as §1

Cell Line | relative viability ([1]; first compound 0.05 µM) | relative viability ([1]; first compound 0.1581 µM) | relative viability ([1]; first compound 0.5 µM) | relative viability ([1]; first compound 1.581 µM) | relative viability ([1]; first compound 5 µM) | relative viability ([2]; first compound 0.05 µM) | relative viability ([2]; first compound 0.1581 µM) | relative viability ([2]; first compound 0.5 µM) | relative viability ([2]; first compound 1.581 µM) | relative viability ([2]; first compound 5 µM) | relative viability ([3]; first compound 0.05 µM) | relative viability ([3]; first compound 0.1581 µM) | relative viability ([3]; first compound 0.5 µM) | relative viability ([3]; first compound 1.581 µM) | relative viability ([3]; first compound 5 µM) | relative viability ([4]; first compound 0.05 µM) | relative viability ([4]; first compound 0.1581 µM) | relative viability ([4]; first compound 0.5 µM) | relative viability ([4]; first compound 1.581 µM) | relative viability ([4]; first compound 5 µM)
UMC-11 | 0.331 | 0.35 | 0.258 | 0.256 | 0.224 | 0.634 | 0.596 | 0.119 | 0.131 | 0.0891 | 0.533 | 0.399 | 0.168 | 0.18 | 0.133 | 0.872 | 0.928 | 0.128 | 0.106 | 0.101
PC-3 [JPC-3] | 0.568 | 0.541 | 0.534 | 0.435 | 0.429 | 0.863 | 0.803 | 0.775 | 0.285 | 0.231 | 0.943 | 0.98 | 0.767 | 0.174 | 0.168 | 0.983 | 0.98 | 0.707 | 0.307 | 0.318
COR-L23 | 0.27 | 0.335 | 0.22 | 0.119 | 0.111 | 0.937 | 0.933 | 0.689 | 0.126 | 0.111 | 0.434 | 0.364 | 0.203 | 0.102 | 0.0618 | 0.85 | 0.746 | 0.334 | 0.0804 | 0.0944
HCC-78 | 0.497 | 0.478 | 0.435 | 0.406 | 0.357 | 0.472 | 0.496 | 0.39 | 0.238 | 0.227 | 0.463 | 0.537 | 0.306 | 0.317 | 0.206 | 0.371 | 0.402 | 0.289 | 0.206 | 0.27
NCI-H2405 | 0.511 | 0.508 | 0.382 | 0.343 | 0.332 | 1.02 | 0.492 | 0.835 | 0.401 | 0.557 | 0.24 | 0.21 | 0.171 | 0.162 | 0.131 | 0.788 | 0.634 | 0.402 | 0.401 | 0.38
SW 1573 | 0.355 | 0.432 | 0.177 | 0.123 | 0.127 | 0.975 | 1.2 | 0.867 | 0.157 | 0.565 | 0.574 | 0.416 | 0.11 | 0.0632 | 0.0788 | 0.828 | 0.669 | 0.629 | 0.326 | 0.182
EMC-BAC-2 | 0.478 | 0.512 | 0.476 | 0.376 | 0.272 | 1.19 | 1.08 | 0.925 | 0.416 | 0.278 | 0.328 | 0.361 | 0.296 | 0.168 | 0.139 | 0.804 | 0.799 | 0.639 | 0.403 | 0.149
NCI-H647 | 0.436 | 0.39 | 0.174 | 0.0732 | 0.077 | 1.2 | 0.814 | 0.324 | 0.0759 | 0.0904 | 0.216 | 0.144 | 0.0412 | 0.0467 | 0.0528 | 1.23 | 1.1 | 0.214 | 0.079 | 0.0802
LCLC-97TM1 | 0.216 | 0.191 | 0.17 | 0.0856 | 0.111 | 0.77 | 0.71 | 0.354 | 0.0568 | 0.0894 | 0.743 | 0.74 | 0.761 | 0.214 | 0.128 | 0.244 | 0.238 | 0.144 | 0.139 | 0.127
H3255 | 0.315 | 0.285 | 0.306 | 0.256 | 0.264 | 0.793 | 0.746 | 0.708 | 0.363 | 0.242 | 0.346 | 0.349 | 0.344 | – | 0.279 | 0.626 | 0.796 | 0.444 | 0.335 | 0.233
LXF-289 | 0.607 | 0.57 | 0.481 | 0.233 | 0.107 | 0.84 | 0.781 | 0.649 | 0.0959 | 0.0616 | 0.225 | 0.206 | 0.124 | 0.037 | 0.0349 | 0.994 | 0.801 | 0.138 | 0.0881 | 0.0604
LC-2-ad | 0.457 | 0.422 | 0.401 | 0.237 | 0.194 | 0.866 | 0.516 | 0.399 | 0.108 | 0.106 | 0.639 | 0.594 | 0.201 | 0.123 | 0.133 | 0.791 | 0.784 | 0.135 | 0.113 | 0.1
A-427 | 0.553 | 0.479 | 0.502 | 0.331 | 0.236 | 1.05 | 1.05 | 0.752 | 0.258 | 0.251 | 0.839 | 0.501 | 0.602 | 0.175 | 0.088 | 1.01 | 1.13 | 1 | 0.486 | 0.161
NCI-H322M | 0.519 | 0.511 | 0.457 | 0.429 | 0.484 | 1.16 | 1.45 | 1.21 | 0.878 | 0.45 | 0.233 | 0.263 | 0.268 | 0.27 | 0.308 | 0.797 | 0.847 | 0.687 | 0.426 | 0.336
HCC-366 | 0.136 | 0.372 | 0.248 | 0.0295 | 0.0149 | 1.12 | 1.04 | 0.646 | 0.018 | 0.0097 | 0.675 | 0.67 | 0.338 | 0.0209 | 0.0192 | 0.656 | 0.246 | 0.123 | 0.0134 | 0.0086
